Source: patent US8338420B1, “Treatment of Parkinson's disease and enhancement of dopamine signal using PDE 10 inhibitor” (Mitsubishi Tanabe Pharma Corporation, priority 2002, dated 2012)

Legend:
PDE5 = biological target: T1, PDE5 (Canis lupus familiaris, UniProt O77746); assay: PDE assay, PDE5 enzyme solution from canine lung; type: biochemical; settings: substrate about 12 nM [3H]-cGMP and 1 μM cGMP
T1 construct: These were used as a PDE5 enzyme solution for PDE assay; tissue Oriental Yeast (animals); host or cells: canine lung, soluble fraction, DEAE Sepharose fractions
Description: In the same manner as in (1-4) above, the supernatant obtained from the homogenate of canine lung tissue was applied to chromatography under FLPC system, to collect eluted fractions of 2 ml each.
Subsequently, the eluted fractions were used as an enzyme solution for PDE assay, and cGMP-hydrolyzing activity was measured for respective fractions, in the presence or absence of E4021, the PDE5 specific inhibitor.
Further, for examining contamination of PDE1, which is adjacently eluted, cGMP-hydrolyzing PDE activity of the respective fractions were measured in the same assay buffer containing EGTA (final concentration of 1 mM) [or calcium chloride (final concentration of 2 mM) and calmodulin (40 units/ml)].
These fractions were collected and glycerol was added thereto to become 50%, and the mixture was stored at −20° C. These were used as a PDE5 enzyme solution for PDE assay.

PDE7 (PDE7A) = biological target: T2, PDE7 (PDE7A) (Homo sapiens, UniProt Q13946); assay: PDE assay, recombinant human PDE7A; type: biochemical; settings: substrate about 4.8 nM [3H]-cAMP and 0.1 μM cAMP
T2 construct: His tag (hexahistidine, pcDNA4/HisMax) (N); made in house
T2 sequence (Q13946 1-456 isoform Q13946-2): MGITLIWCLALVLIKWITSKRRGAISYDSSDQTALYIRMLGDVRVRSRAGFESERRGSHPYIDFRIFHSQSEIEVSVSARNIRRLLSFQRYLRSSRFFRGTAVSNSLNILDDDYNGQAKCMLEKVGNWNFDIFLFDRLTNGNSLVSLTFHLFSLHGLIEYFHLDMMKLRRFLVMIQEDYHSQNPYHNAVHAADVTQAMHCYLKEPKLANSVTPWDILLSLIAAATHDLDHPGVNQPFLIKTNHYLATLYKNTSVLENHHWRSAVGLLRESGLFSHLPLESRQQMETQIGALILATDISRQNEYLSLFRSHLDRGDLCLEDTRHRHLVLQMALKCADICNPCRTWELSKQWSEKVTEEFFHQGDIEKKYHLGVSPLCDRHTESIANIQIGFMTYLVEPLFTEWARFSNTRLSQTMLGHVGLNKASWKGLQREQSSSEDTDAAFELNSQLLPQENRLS
Description: Based on the information of cDNA sequence of human PDE7A (Genbank/EMBL Accession No. NM002603), a cDNA encoding human PDE7A was cloned by PCR method, according to a method described in Sasaki et al. (Sasaki et al., Biochem. Biophys. Res. Commun., vol. 271, pp. 575-583, 2000). Further, based on the information of cDNA sequence of human PDE8A (Genbank/EMBL Accession No. AF388183), a cDNA encoding human PDE8A was cloned by PCR method, according to a method described in Gamanuma et al. (Gamanuma et al., Cell Signal, 2003, vol. 15, pp. 565-574). Further, a cDNA encoding human PDE11A was obtained, according to a method reported in Yuasa et al. (Yuasa et al., J. Biol. Chem., vol. 275, pp. 31469-31479, 2000). Using these cDNAs, recombinant proteins of human PDE7A, human PDE8A, and human PDE11A were prepared as follows.
DNA fragments comprising a cDNA encoding human PDE7A, human PDE8A or human PDE11A were linked to pcDNA4/HisMax (available from Invitrogen), to give a vector plasmid for expression of human proteins, with a histidine tag peptide (hexahistidine), added to the N-terminus. COS-7 cells were transfected with these vector plasmids, and the cells were cultured in Dulbecco's modified Eagle medium containing 10% bovine fetal serum for about 24 hours. […]

PDE1 = assay: PDE assay, PDE1 enzyme solution from rat ventricle; type: biochemical, SD rat; settings: substrate about 12 nM [3H]-cGMP and 1 μM cGMP
Description: Ventricle was excised from SD rat anesthetized with sodium pentobarbital (Nihon SLC, about 300 g), and washed with 100 ml of ice-cold saline 3 times. After the tissues were cut in approximately 1 g, it was frozen by liquid nitrogen, and stored at −80° C.
To about 5 g of this tissue sample was added 16 ml of an ice-cold homogenization buffer I, and the resultant mixture was homogenized by Polytron homogenizer for 3 minutes. The homogenate was centrifuged at 8000 rpm, at 4° C. for 20 minutes, and the obtained supernatant was further centrifuged by an ultracentrifuge at 50000 rpm, at 4° C. for 60 minutes. The resultant supernatant was stored at 4° C. […]
Subsequently, the eluted fractions were used as an enzyme solution for PDE assay. […] (final concentration of 1 mM) or calcium chloride (final concentration of 2 mM) and calmodulin (40 unit s/ml), and cGMP-hydrolyzing activity was measured.
For these PDE1 containing fractions, cGMP hydrolyzing activities were analyzed in the presence of E4021 (100 nM), PDE5 specific inhibitor, it was shown that the cGMP-hydrolyzing activities in these fractions were not inhibited by E4021. […]
Further, in the presence or absence of unlabeled cGMP, cAMP-PDE activities were measured for each of the fractions. […]
Still further, in the presence of rolipram (10 μm), the PDE4 specific inhibitor, cAMP hydrolyzing activities were measured for each of the fractions. […]

Measured: IC50

COc1ccc(-c2cc(N3CCCC3)nc(/C=C/c3nc(-n4ccnc4)c4ccccc4n3)n2)cc1OC [Compound A, 2-{(E)-2-[4-(1-imidazolyl)-quinazolin-2-yl]}ethenyl-4-(3,4-dimethoxy)phenyl-6-(pyrrolidin-1-yl)pyrimidine]
> 1000 nM: all assays above
